Experimental data reported in publication PMC5967236 (Angewandte Chemie (International ed. in English), 2017).

Legend:
[1] = tested on: all cellular proteins in MOLM-13 cells; assay: whole-cell lysate proteomics; format: cell-based, human; details: 100 nM for 2 hours
[2] = tested on: human AML lines (EOL-1, MOLM-13, MV4;11); assay: viability of human AML lines, 7 days; format: cell-based
MOLM-13 = assay: viability of MOLM-13; format: cell-based, human; details: MOLM-13 transduced with wild type BRD9
MM.1S line = assay: activity in MM.1S line; format: cell-based; details: multiple myelome derived line
[3] = tested on: IKZF family of linage specific transcription factors; assay: activity against IKZF family transcription factors; format: cell-based
BRD4 = BRD4 (Homo sapiens, UniProt O60885); assay: BRD4 immunoblot in MOLM-13 cells; details: MOLM-13, 4hr, western blot
BRD7 = target: T1, BRD7 (Homo sapiens, UniProt Q9NPI1); assay: BRD7 immunoblot in MOLM-13 cells; details: MOLM-13, 4hr, western blot
T1 sequence (Q9NPI1 1-651): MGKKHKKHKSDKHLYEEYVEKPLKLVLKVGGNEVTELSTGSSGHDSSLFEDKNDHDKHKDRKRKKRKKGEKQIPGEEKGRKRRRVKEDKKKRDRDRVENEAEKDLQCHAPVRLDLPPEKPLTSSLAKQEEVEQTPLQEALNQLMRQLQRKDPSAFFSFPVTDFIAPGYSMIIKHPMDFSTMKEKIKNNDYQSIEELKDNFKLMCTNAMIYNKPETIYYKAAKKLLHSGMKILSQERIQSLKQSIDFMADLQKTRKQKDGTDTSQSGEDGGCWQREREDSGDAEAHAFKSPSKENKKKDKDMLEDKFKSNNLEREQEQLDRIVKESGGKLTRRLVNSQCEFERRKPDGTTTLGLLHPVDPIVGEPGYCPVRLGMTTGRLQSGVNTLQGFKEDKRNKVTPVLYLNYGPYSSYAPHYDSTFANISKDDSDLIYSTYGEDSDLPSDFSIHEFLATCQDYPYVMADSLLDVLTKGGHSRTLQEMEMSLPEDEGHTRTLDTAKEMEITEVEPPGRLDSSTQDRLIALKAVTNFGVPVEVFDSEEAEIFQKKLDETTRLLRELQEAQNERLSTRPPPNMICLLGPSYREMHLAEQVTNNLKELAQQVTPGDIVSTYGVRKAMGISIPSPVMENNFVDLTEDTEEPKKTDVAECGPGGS

[4] = tested on: IKZF family of linage specific transcription factors; details: cited from earlier work

Structure (SMILES) | change in BRD4 or BRD7 levels [1] | difference in levels of other proteins (99% of proteins) [1] | anti-proliferative effect ([2]; EOL-1, MOLM-13, MV4;11, 7 days) | half-maximal anti-proliferative concentration ([2]; human AML lines) | sensitivity with viral expression of exogenous wild type BRD9 (MOLM-13) | activity in MM.1S (MM.1S line) | activity against IKZF family [3] | off target degradation activity on BRD4 (BRD4) | off target degradation activity on BRD7 (BRD7) | activity against IKZF family, earlier report [4]
COc1cc(-c2cn(C)c(=O)c3cnccc23)cc(OC)c1CN(C)CC(=O)NCCOCCOCCNc1cccc2c1C(=O)N(C1CCC(=O)NC1=O)C2=O (stereo not shown) [dBRD9] | no significant change | less than 0.30 fold | potent anti-proliferative effect | low nanomolar | shifted sensitivity, but to an intermediate degree | dBRD9 sensitive | retain activity | not detectable | not detectable | 
Cc1sc2c(c1C)C(c1ccc(Cl)cc1)=N[C@@H](CC(=O)NCCCCNC(=O)COc1cccc3c1C(=O)N(C1CCC(=O)NC1=O)C3=O)c1nnc(C)n1-2 (stereo partly shown) [dBET-1] |  |  |  |  |  |  |  |  |  | not previously observed
